Measurements: ChEMBL document CHEMBL4219086, “Development of benzoxazole deoxybenzoin oxime and acyloxylamine derivatives targeting innate immune sensors and xanthine oxidase for treatment of gout” (Bioorg Med Chem, 2018)
Activity calls are given as the source filed them. The calls are words filed in the database; no cut-off is given here.

Assays:
Mus musculus [1] = organism: Mus musculus; conditions: Kunming, 10 mg/kg
Description: Anti-hyperuricemic effect in Kunming mouse assessed as inhibition of potassium oxonate-induced serum uric acid level at 10 mg/kg, po treated 1 hr post potassium oxonate addition measured after 1 hr by phosphotungstic acid method relative to control

Mus musculus [2] = assay: In vivo inhibition of XOD activity in liver of Kunming mouse model of potassium oxonate-induced hyperuricemia at 10 mg/kg, po treated 1 hr post potassium oxonate addition measured after 1 hr relative to control; format: functional
Mus musculus [3] = assay: Hypouricemic effect in Kunming mouse assessed as inhibition of hepatic XOD activity at 10 mg/kg, po measured after 1 hr relative to control; format: organism-based
Rattus norvegicus [4] = assay: Inhibition of MSU-induced caspase-1 protein level in synovial homogenate of acute gouty arthritis Sprague-Dawley rat model at 10 mg/kg, po qd pretreated via gavage for 5 days followed by MSU treatment at 1 hr post last dose measured up to 24 hrs by Western blot method; format: functional, organism-based
Rattus norvegicus [5] = assay: Inhibition of MSU-induced NLRP3 protein level in synovial homogenate of acute gouty arthritis Sprague-Dawley rat model at 10 mg/kg, po qd pretreated via gavage for 5 days followed by MSU treatment at 1 hr post last dose measured up to 24 hrs by Western blot method; format: functional, organism-based
Rattus norvegicus [6] = assay: Inhibition of MSU-induced p65 NFkappaB protein level in synovial homogenate of acute gouty arthritis Sprague-Dawley rat model at 10 mg/kg, po qd pretreated via gavage for 5 days followed by MSU treatment at 1 hr post last dose measured up to 24 hrs by Western blot method; format: functional, organism-based
Rattus norvegicus [7] = assay: (§1) Antiarthritic activity in MSU-induced acute gouty arthritis Sprague-Dawley rat model assessed as reduction in ankle swelling by measuring perimeter of ankle at 10 mg/kg, po qd pretreated via gavage for 5 days followed by MSU treatment at 1 hr post last dose measured after 24 hrs (reference value: 3.35 +/- 0.5 cm); format: functional
Rattus norvegicus [8] = assay: Inhibition of MSU-induced IL-1beta level in synovial homogenate of acute gouty arthritis Sprague-Dawley rat model at 10 mg/kg, po qd pretreated via gavage for 5 days followed by MSU treatment at 1 hr post last dose measured up to 24 hrs by ELISA; format: functional, organism-based
Rattus norvegicus [9] = assay: Inhibition of MSU-induced TNFalpha level in serum of acute gouty arthritis Sprague-Dawley rat model at 10 mg/kg, po qd pretreated via gavage for 5 days followed by MSU treatment at 1 hr post last dose measured up to 24 hrs by ELISA; format: functional, organism-based
Rattus norvegicus [10] = assay: Inhibition of MSU-induced MyD88 protein level in synovial homogenate of acute gouty arthritis Sprague-Dawley rat model at 10 mg/kg, po qd pretreated via gavage for 5 days followed by MSU treatment at 1 hr post last dose measured up to 24 hrs by Western blot method; format: functional, organism-based
Rattus norvegicus [11] = assay: Inhibition of MSU-induced IL-1beta level in serum of acute gouty arthritis Sprague-Dawley rat model at 10 mg/kg, po qd pretreated via gavage for 5 days followed by MSU treatment at 1 hr post last dose measured up to 24 hrs by ELISA; format: functional, organism-based
Rattus norvegicus [12] = assay: Inhibition of MSU-induced TNFalpha level in synovial homogenate of acute gouty arthritis Sprague-Dawley rat model at 10 mg/kg, po qd pretreated via gavage for 5 days followed by MSU treatment at 1 hr post last dose measured up to 24 hrs by ELISA; format: functional, organism-based
Rattus norvegicus [13] = assay: Inhibition of MSU-induced ASC protein level in synovial homogenate of acute gouty arthritis Sprague-Dawley rat model at 10 mg/kg, po qd pretreated via gavage for 5 days followed by MSU treatment at 1 hr post last dose measured up to 24 hrs by Western blot method; format: functional, organism-based
Rattus norvegicus [14] = assay: as §1, with “2” for “24”, “2.82” for “3.35”, “0.75” for “0.5”; format: functional
Rattus norvegicus [15] = assay: as §1, with “4” for “24”, “3.18” for “3.35”, “0.64” for “0.5”; format: functional
Rattus norvegicus [16] = assay: as §1, with “12” for “24”, “3.51” for “3.35”, “0.52” for “0.5”; format: functional
Rattus norvegicus [17] = assay: Inhibition of MSU-induced phosphorylated IkappaB protein level in synovial homogenate of acute gouty arthritis Sprague-Dawley rat model at 10 mg/kg, po qd pretreated via gavage for 5 days followed by MSU treatment at 1 hr post last dose measured up to 24 hrs by Western blot method; format: functional, organism-based
Rattus norvegicus [18] = assay: as §1, with “immediately” for “after 24 hrs”, “2.64” for “3.35”, “0.81” for “0.5”; format: functional
Rattus norvegicus [19] = assay: Inhibition of MSU-induced TLR4 protein level in synovial homogenate of acute gouty arthritis Sprague-Dawley rat model at 10 mg/kg, po qd pretreated via gavage for 5 days followed by MSU treatment at 1 hr post last dose measured up to 24 hrs by Western blot method; format: functional, organism-based
Rattus norvegicus [20] = assay: as §1, with “8” for “24”, “3.27” for “3.35”, “0.56” for “0.5”; format: functional
[21] = target: NACHT, LRR and PYD domains-containing protein 3 (Homo sapiens, UniProt Q96P20); assay: Inhibition of NLRP3 inflammasome in human THP1 cells assessed as reduction in MSU-induced IL-1beta production preincubated for 1 hr followed by MSU stimulation measured after 6 hrs; format: cell-based
Chain of NACHT, LRR and PYD domains-containing protein 3 (Q96P20 whole entry, the tested form may be a part): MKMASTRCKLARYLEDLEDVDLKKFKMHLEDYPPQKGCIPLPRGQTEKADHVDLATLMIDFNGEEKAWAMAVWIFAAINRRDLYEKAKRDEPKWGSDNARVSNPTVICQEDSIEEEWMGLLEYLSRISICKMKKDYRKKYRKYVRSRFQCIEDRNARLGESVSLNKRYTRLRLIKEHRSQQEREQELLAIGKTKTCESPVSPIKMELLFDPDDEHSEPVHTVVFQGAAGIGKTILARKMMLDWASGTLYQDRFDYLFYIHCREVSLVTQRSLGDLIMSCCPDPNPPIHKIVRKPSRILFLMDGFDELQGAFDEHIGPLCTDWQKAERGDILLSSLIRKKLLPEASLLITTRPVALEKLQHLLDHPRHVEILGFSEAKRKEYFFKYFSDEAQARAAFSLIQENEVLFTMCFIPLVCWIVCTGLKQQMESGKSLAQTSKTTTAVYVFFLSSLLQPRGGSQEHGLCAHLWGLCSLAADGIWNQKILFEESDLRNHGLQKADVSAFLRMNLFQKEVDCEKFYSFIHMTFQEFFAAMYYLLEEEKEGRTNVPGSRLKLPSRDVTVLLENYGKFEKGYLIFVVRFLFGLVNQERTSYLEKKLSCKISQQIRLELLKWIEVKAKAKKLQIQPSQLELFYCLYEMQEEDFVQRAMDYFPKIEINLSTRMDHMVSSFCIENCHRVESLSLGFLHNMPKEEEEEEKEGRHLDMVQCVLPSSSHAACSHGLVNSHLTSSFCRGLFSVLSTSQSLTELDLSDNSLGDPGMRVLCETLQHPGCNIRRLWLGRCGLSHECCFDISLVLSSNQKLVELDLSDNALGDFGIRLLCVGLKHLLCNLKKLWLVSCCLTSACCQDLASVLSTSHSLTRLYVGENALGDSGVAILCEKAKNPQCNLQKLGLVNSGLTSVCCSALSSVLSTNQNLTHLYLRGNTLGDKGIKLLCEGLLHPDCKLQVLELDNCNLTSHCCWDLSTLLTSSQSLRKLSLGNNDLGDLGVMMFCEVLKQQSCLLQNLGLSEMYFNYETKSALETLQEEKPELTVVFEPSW

Toll-like receptor 4 = Toll-like receptor 4 (Homo sapiens, UniProt O00206); assay: Inhibition of human TLR4 signaling expressed in HEK-Blue cells co-expressing MD2/CD14 assessed as reduction in LPS-induced NF-kappaB activation-mediated SEAP production preincubated for 2 hrs followed by LPS stimulation for 20 hrs by colorimetric assay; format: cell-based
Chain of Toll-like receptor 4 (O00206 whole entry): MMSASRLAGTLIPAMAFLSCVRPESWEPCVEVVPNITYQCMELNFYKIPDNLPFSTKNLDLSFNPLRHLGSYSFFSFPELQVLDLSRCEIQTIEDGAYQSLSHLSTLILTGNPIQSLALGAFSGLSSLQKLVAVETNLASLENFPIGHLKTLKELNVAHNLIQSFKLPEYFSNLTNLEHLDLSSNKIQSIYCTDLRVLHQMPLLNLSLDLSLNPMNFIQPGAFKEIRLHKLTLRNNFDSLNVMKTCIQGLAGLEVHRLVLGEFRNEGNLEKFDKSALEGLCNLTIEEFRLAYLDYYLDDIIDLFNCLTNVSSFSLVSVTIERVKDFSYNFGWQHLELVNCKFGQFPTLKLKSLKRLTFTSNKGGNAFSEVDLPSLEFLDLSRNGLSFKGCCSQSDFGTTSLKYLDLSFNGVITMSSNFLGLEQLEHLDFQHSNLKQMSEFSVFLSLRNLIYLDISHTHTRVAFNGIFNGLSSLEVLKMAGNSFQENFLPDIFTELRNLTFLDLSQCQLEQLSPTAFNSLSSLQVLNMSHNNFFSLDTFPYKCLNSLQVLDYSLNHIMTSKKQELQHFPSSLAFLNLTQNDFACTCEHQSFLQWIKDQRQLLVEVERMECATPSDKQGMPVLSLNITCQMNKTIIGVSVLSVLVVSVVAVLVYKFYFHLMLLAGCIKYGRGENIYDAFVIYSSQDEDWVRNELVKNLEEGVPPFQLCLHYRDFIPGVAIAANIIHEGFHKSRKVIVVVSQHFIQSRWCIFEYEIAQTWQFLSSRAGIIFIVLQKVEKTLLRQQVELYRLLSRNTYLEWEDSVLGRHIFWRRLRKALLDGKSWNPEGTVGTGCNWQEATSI

[22] = target: Xanthine dehydrogenase/oxidase (Homo sapiens, UniProt P47989); assay: Inhibition of Xanthine oxidase (unknown origin) using xanthine as substrate preincubated for 1 to 5 mins followed by substrate addition
Chain of Xanthine dehydrogenase/oxidase (P47989 whole entry): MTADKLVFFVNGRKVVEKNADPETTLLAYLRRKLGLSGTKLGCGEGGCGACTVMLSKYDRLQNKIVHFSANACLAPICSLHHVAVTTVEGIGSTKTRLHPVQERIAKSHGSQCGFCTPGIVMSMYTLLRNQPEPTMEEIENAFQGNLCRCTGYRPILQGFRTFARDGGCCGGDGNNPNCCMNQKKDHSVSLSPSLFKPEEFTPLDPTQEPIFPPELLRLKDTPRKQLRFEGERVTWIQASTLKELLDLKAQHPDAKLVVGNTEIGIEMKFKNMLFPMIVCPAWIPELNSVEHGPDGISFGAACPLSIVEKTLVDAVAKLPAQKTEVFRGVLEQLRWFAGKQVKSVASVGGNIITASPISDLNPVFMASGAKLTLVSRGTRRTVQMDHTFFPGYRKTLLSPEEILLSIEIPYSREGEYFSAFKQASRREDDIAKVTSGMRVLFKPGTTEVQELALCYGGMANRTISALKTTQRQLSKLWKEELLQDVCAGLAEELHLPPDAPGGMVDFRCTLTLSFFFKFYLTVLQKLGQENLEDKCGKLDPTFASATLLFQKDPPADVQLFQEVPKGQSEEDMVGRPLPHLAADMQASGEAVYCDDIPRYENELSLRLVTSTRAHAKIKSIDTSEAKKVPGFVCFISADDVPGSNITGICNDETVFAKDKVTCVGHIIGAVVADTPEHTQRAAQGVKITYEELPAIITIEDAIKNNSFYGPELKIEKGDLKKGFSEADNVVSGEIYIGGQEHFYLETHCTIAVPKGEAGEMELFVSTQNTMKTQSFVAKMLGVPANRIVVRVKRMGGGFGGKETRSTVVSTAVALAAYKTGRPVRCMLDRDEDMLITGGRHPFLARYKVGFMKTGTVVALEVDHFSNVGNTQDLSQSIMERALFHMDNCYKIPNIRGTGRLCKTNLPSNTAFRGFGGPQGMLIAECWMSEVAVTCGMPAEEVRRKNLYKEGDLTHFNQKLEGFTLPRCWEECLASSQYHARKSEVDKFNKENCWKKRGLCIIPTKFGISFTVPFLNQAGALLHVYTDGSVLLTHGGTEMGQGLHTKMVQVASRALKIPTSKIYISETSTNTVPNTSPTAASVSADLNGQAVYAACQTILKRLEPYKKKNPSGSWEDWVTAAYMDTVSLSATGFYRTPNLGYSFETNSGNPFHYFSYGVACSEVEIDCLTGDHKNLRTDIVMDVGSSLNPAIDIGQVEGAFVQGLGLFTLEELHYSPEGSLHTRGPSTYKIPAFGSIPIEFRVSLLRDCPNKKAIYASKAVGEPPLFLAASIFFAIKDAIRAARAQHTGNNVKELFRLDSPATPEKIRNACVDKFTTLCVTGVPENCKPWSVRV

## Oc1ncnc2[nH]ncc12 [ALLOPURINOL]
Mus musculus [1]
  inhibition: Active
Mus musculus [2]
  inhibition in vivo at 10 mg/kg: 47.1%
Mus musculus [3]
  inhibition at 10 mg/kg: 27.9%

## COc1cc2c(c(OC)c1OC)-c1ccc(OC)c(=O)cc1[C@@H](NC(C)=O)CC2 [COLCHICINE]
Rattus norvegicus [4]
  inhibition: Active
Rattus norvegicus [5]
  inhibition: Active
Rattus norvegicus [6]
  inhibition: Active
Rattus norvegicus [7]
  Activity: 2.79 cm
Rattus norvegicus [8]
  inhibition: Active
Rattus norvegicus [9]
  inhibition: Active
Rattus norvegicus [10]
  inhibition: Active
Rattus norvegicus [11]
  inhibition: Active
Rattus norvegicus [12]
  inhibition: Active
Rattus norvegicus [13]
  inhibition: Active
Rattus norvegicus [14]
  Activity: 2.73 cm
Rattus norvegicus [15]
  Activity: 2.81 cm
Rattus norvegicus [16]
  Activity: 2.8 cm
Rattus norvegicus [17]
  inhibition: Active
Rattus norvegicus [18]
  Activity: 2.49 cm
Rattus norvegicus [19]
  inhibition: Active
Rattus norvegicus [20]
  Activity: 2.77 cm

## O=C(/C=C/c1ccc(O)cc1)c1ccc(O)cc1O [ISOLIQUIRITIGENIN]
[21]
  IC50: 1.54 µM

## Cc1ccc2oc(/C(Cc3ccc(F)cc3)=N/O)nc2c1
Toll-like receptor 4
  IC50: 45.7 µM

## O/N=C(\Cc1ccc(F)cc1)c1nc2cc(Cl)ccc2o1
[22]
  IC50: > 100 µM

## CCOC(=O)C1=CCCC[C@H]1S(=O)(=O)Nc1ccc(F)cc1Cl [RESATORVID]
Toll-like receptor 4
  IC50: 0.68 µM

## O/N=C(\Cc1ccc(F)cc1)c1nc2ccc(Cl)cc2o1
[22]
  IC50: > 100 µM

## COc1ccc(C/C(=N\O)c2nc3ccc(Cl)cc3o2)cc1
[22]
  IC50: 17.8 µM
[21]
  IC50: 5.72 µM
Toll-like receptor 4
  IC50: 5.42 µM

## Cc1ccc2nc(/C(Cc3ccccc3)=N/O)oc2c1
Toll-like receptor 4
  IC50: 19.3 µM

## O/N=C(\Cc1ccc(F)cc1)c1nc2ccc(Br)cc2o1
[22]
  IC50: > 100 µM

## O/N=C(\Cc1ccccc1)c1nc2ccc(Br)cc2o1
[22]
  IC50: > 100 µM

## COc1ccccc1C(=O)O/N=C(\C)c1nc2ccccc2o1
[22]
  IC50: 15.2 µM
[21]
  IC50: 39.5 µM
Toll-like receptor 4
  IC50: 25.9 µM
